Tested on: upper airway collapsibility in anaesthetized, spontaneously breathing pigs
Test: pig model of obstructive sleep apnea (OSA): upper airway collapsibility under negative pressure
Type: in vivo, German Landrace pigs
Excerpt: The therapeutic potential of the combination of an α2-Adrenoceptor subtype C (alpha-2C) antagonists with a TASK1/3 channel blocker according to the present invention in sleep apnea can be assessed preclinically in a pig model of obstructive sleep apnea (OSA).
Using negative pressure, it is possible to induce collapse and thus obstruction of the upper respiratory tract in anaesthetized, spontaneously breathing pigs (Wirth K. J. et al., Sleep 36(5)(2013) pp. 699-708).
German Landrace pigs are used for the model. The pigs are anaesthetized and tracheotomized. Two tracheal cannulas are inserted into the trachea, one into the rostral part and the other into the caudal part of the trachea. Using a connection piece, the rostral cannula is connected to a tube to the negative pressure device and to the distal tracheal cannula. The distal tracheal cannula is additionally connected to a tube with an open end to atmosphere via a connection piece that served for free tracheal breathing, circumventing the upper airway. By appropriate opening and clamping of those tubes breathing can be switched from nasal breathing to breathing through the caudal tracheal cannula, circumventing the upper airway, and the (isolated) upper airway can be connected to the negative pressure device, causing airflow in the inspiratory direction.
At certain points in time, the collapsibility of the upper respiratory tract is tested by having the pig breathe via the caudal cannula and applying negative pressures of −50, −100 and −150 cm water head (cm H2O) to the upper respiratory tract. This causes the upper respiratory tract to collapse, which manifests itself in an interruption of the airflow and a pressure drop in the tube system. This test is conducted prior to the administration of the test substance and at certain intervals after the administration of the test substance. An appropriately effective test substance can prevent this collapse of the respiratory tract in the inspiratory phase.

[1] = alpha-2C antagonist alone, 90 min after bolus injection […] and start of infusion 0.005 μg/kg/h
[2] = 0 min (time point of i.v. bolus […] and start of infusion 0.005 μg/kg/h; baseline)
[3] = 30 min after i.v. bolus […] and start of infusion 0.005 μg/kg/h, alpha-2C antagonist alone
[4] = 60 min after i.v. bolus […] and start of infusion 0.005 μg/kg/h, alpha-2C antagonist alone
[5] = 90 min after i.v. bolus […] and start of infusion 0.005 μg/kg/h, time point of nasal application of TASK1/3 channel blocker
[6] = 0 min (time point of intranasal administration of 0.3 μg; baseline), TASK1/3 blocker alone
[7] = 10 min after intranasal administration of 0.3 μg, TASK1/3 blocker alone
[8] = 30 min after intranasal administration of 0.3 μg, TASK1/3 blocker alone
[9] = 60 min after intranasal administration of 0.3 μg, TASK1/3 blocker alone

`COC[C@@]1(C)CCCN2CCc3c(oc4ccccc34)[C@@H]21` [(1S,12bS)-1-(methoxymethyl)-1-methyl-1,3,4,6,7,12b-hexahydro-2H-[1]benzofuro[2,3-a]quinolizine] was tested, and the “upper airway collapsibility at negative pressures of −50 cm head (cm H2O)” value [1] was “only inhibited”, the “upper airway collapsibility at negative pressures of −100 and −150 cm head (cm H2O)” value [1] was “induced” and the “effectiveness of dose on upper airway collapsibility” value (alpha-2C antagonist alone, i.v. bolus […] + infusion 0.005 μg/kg/h) was “non effective dose”. The “inhibited upper airway collapsibility at all negative pressures of −50, −100 and −150 cm head (cm H2O)” value (alpha-2C antagonist alone, i.v. bolus […] followed by i.v. infusion 0.005 μg/kg/h for four hours) was “at no time point”, the “Percent pigs without collaps −50 cm H2O, %” value [2] was 0% and the “Percent pigs without collaps −50 cm H2O, %” value [3] was 0%. The “Percent pigs without collaps −50 cm H2O, %” value [4] was 100%, the “Percent pigs without collaps −50 cm H2O, %” value [5] was 100% and the “Percent pigs without collaps −100 cm H2O, %” value [2] was 0%. For the same compound, the “Percent pigs without collaps −100 cm H2O, %” value [3] was 0%, the “Percent pigs without collaps −100 cm H2O, %” value [4] was 0% and the “Percent pigs without collaps −100 cm H2O, %” value [5] was 0%. The “Percent pigs without collaps −150 cm H2O, %” value [2] was 0%, the “Percent pigs without collaps −150 cm H2O, %” value [3] was 0% and the “Percent pigs without collaps −150 cm H2O, %” value [4] was 0%. For the same compound, the “Percent pigs without collaps −150 cm H2O, %” value [5] was 0%.
`COc1cccc(C(=O)N2CCN(Cc3c(-c4ccc(Cl)cc4)nc4ccccn34)CC2)n1` [(4-{[2-(4-Chlorophenyl)imidazo[1,2-a]pyridin-3-yl]methyl}piperazin-1-yl)(6-methoxypyridin-2-yl)methanone] was tested, and the “effectiveness of dose on upper airway collapsibility” value (TASK1/TASK3 channel blocker alone, 0.3 μg intranasal) was “non effective dose”, the “Percent pigs without collaps −50 cm H2O, %” value [6] was 0% and the “Percent pigs without collaps −50 cm H2O, %” value [7] was 0%. The “Percent pigs without collaps −50 cm H2O, %” value [8] was 0%, the “Percent pigs without collaps −50 cm H2O, %” value [9] was 0% and the “Percent pigs without collaps −100 cm H2O, %” value [6] was 0%. For the same compound, the “Percent pigs without collaps −100 cm H2O, %” value [7] was 0%, the “Percent pigs without collaps −100 cm H2O, %” value [8] was 0% and the “Percent pigs without collaps −100 cm H2O, %” value [9] was 0%. For the same compound, the “Percent pigs without collaps −150 cm H2O, %” value [6] was 0%, the “Percent pigs without collaps −150 cm H2O, %” value [7] was 0% and the “Percent pigs without collaps −150 cm H2O, %” value [8] was 0%. The “Percent pigs without collaps −150 cm H2O, %” value [9] was 0%.

— patent US20220218695A1, “COMBINATION OF AN ALPHA2-ADRENOCEPTOR SUBTYPE C (ALPHA-2C) ANTAGONISTS WITH A TASK1/3 CHANNEL BLOCKER FOR THE TREATMENT OF SLEEP APNEA” (Bayer Aktiengesellschaft, priority 2019, published 2022)
